Experimental data: PubChem BioAssay (NCI)
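A five-concentration, 48-hour dose response in 96-well plates underlies each endpoint, interpolated linearly between surrounding concentrations. TGI: total growth inhibition.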

How the values were obtained:
Assay in all cases: inhibition of tumour cell growth, NCI panel, 48 h
786-0 renal = tested on: 786-0 renal
A498 renal = tested on: A498 renal
A549 NSCLC = tested on: A549 NSCLC
ACHN renal = tested on: ACHN renal
BT-549 breast = tested on: BT-549 breast
CAKI-1 renal = tested on: CAKI-1 renal
CCRF-CEM leukemia = tested on: CCRF-CEM leukemia
COLO 205 colon = tested on: COLO 205 colon
DU-145 prostate = tested on: DU-145 prostate
EKVX NSCLC = tested on: EKVX NSCLC
HCT-116 colon = tested on: HCT-116 colon
HCT-15 colon = tested on: HCT-15 colon
HL-60(TB) leukemia = tested on: HL-60(TB) leukemia
HOP-62 NSCLC = tested on: HOP-62 NSCLC
HOP-92 NSCLC = tested on: HOP-92 NSCLC
HS 578T breast = tested on: HS 578T breast
HT29 colon = tested on: HT29 colon
IGROV1 ovarian = tested on: IGROV1 ovarian
K-562 leukemia = tested on: K-562 leukemia
KM12 colon = tested on: KM12 colon
LOX IMVI melanoma = tested on: LOX IMVI melanoma
M14 melanoma = tested on: M14 melanoma
MALME-3M melanoma = tested on: MALME-3M melanoma
MCF7 breast = tested on: MCF7 breast
MDA-MB-231 breast = tested on: MDA-MB-231 breast
MDA-MB-435 = tested on: MDA-MB-435
MDA-N = tested on: MDA-N
MOLT-4 leukemia = tested on: MOLT-4 leukemia
NCI-H226 lung = tested on: NCI-H226 lung
NCI-H23 lung = tested on: NCI-H23 lung
NCI-H460 lung = tested on: NCI-H460 lung
NCI-H522 lung = tested on: NCI-H522 lung
NCI/ADR-RES ovarian = tested on: NCI/ADR-RES ovarian
OVCAR-3 ovarian = tested on: OVCAR-3 ovarian
OVCAR-4 ovarian = tested on: OVCAR-4 ovarian
OVCAR-5 ovarian = tested on: OVCAR-5 ovarian
OVCAR-8 ovarian = tested on: OVCAR-8 ovarian
PC-3 prostate = tested on: PC-3 prostate
RPMI-8226 leukemia = tested on: RPMI-8226 leukemia
RXF 393 renal = tested on: RXF 393 renal
SF-268 CNS = tested on: SF-268 CNS
SF-295 CNS = tested on: SF-295 CNS
SF-539 CNS = tested on: SF-539 CNS
SK-MEL-2 melanoma = tested on: SK-MEL-2 melanoma
SK-MEL-28 melanoma = tested on: SK-MEL-28 melanoma
SK-MEL-5 melanoma = tested on: SK-MEL-5 melanoma
SK-OV-3 ovarian = tested on: SK-OV-3 ovarian
SN12C renal = tested on: SN12C renal
SNB-19 CNS = tested on: SNB-19 CNS
SNB-75 CNS = tested on: SNB-75 CNS
SR leukemia = tested on: SR leukemia
SW-620 colon = tested on: SW-620 colon
T-47D breast = tested on: T-47D breast
TK-10 renal = tested on: TK-10 renal
U251 CNS = tested on: U251 CNS
UACC-257 melanoma = tested on: UACC-257 melanoma
UACC-62 melanoma = tested on: UACC-62 melanoma
UO-31 renal = tested on: UO-31 renal
HCC-2998 colon = tested on: HCC-2998 colon

## CCC1([N+](=O)[O-])CC2C=CC1C2 (configuration not stated)
786-0 renal
  TGI: > 100 µM
A498 renal
  TGI: > 100 µM
A549 NSCLC
  TGI: > 100 µM
ACHN renal
  TGI: > 100 µM
BT-549 breast
  TGI: > 100 µM
CAKI-1 renal
  TGI: > 100 µM
CCRF-CEM leukemia
  TGI: > 100 µM
COLO 205 colon
  TGI: > 100 µM
DU-145 prostate
  TGI: > 100 µM
EKVX NSCLC
  TGI: > 100 µM
HCT-116 colon
  TGI: > 100 µM
HCT-15 colon
  TGI: > 100 µM
HL-60(TB) leukemia
  TGI: > 100 µM
HOP-62 NSCLC
  TGI: > 100 µM
HOP-92 NSCLC
  TGI: > 100 µM
HS 578T breast
  TGI: > 100 µM
HT29 colon
  TGI: > 100 µM
IGROV1 ovarian
  TGI: > 100 µM
K-562 leukemia
  TGI: > 100 µM
KM12 colon
  TGI: > 100 µM
LOX IMVI melanoma
  TGI: > 100 µM
M14 melanoma
  TGI: > 100 µM
MALME-3M melanoma
  TGI: > 100 µM
MCF7 breast
  TGI: > 100 µM
MDA-MB-231 breast
  TGI: > 100 µM
MDA-MB-435
  TGI: > 100 µM
MDA-N
  TGI: > 100 µM
MOLT-4 leukemia
  TGI: > 100 µM
NCI-H226 lung
  TGI: > 100 µM
NCI-H23 lung
  TGI: > 100 µM
NCI-H460 lung
  TGI: > 100 µM
NCI-H522 lung
  TGI: > 100 µM
NCI/ADR-RES ovarian
  TGI: > 100 µM
OVCAR-3 ovarian
  TGI: > 100 µM
OVCAR-4 ovarian
  TGI: > 100 µM
OVCAR-5 ovarian
  TGI: > 100 µM
OVCAR-8 ovarian
  TGI: > 100 µM
PC-3 prostate
  TGI: > 100 µM
RPMI-8226 leukemia
  TGI: > 100 µM
RXF 393 renal
  TGI: > 100 µM
SF-268 CNS
  TGI: > 100 µM
SF-295 CNS
  TGI: > 100 µM
SF-539 CNS
  TGI: > 100 µM
SK-MEL-2 melanoma
  TGI: > 100 µM
SK-MEL-28 melanoma
  TGI: > 100 µM
SK-MEL-5 melanoma
  TGI: > 100 µM
SK-OV-3 ovarian
  TGI: > 100 µM
SN12C renal
  TGI: > 100 µM
SNB-19 CNS
  TGI: > 100 µM
SNB-75 CNS
  TGI: > 100 µM
SR leukemia
  TGI: > 100 µM
SW-620 colon
  TGI: > 100 µM
T-47D breast
  TGI: > 100 µM
TK-10 renal
  TGI: > 100 µM
U251 CNS
  TGI: > 100 µM
UACC-257 melanoma
  TGI: > 100 µM
UACC-62 melanoma
  TGI: > 100 µM
UO-31 renal
  TGI: > 100 µM

## CCOC(=O)/C=C(/OCC)[C@@H]1C(C(=O)c2ccc(Cl)cc2)[C@H]1/C(=C\C(=O)OCC)OCC (some centres not stated)
786-0 renal
  TGI: > 100 µM
A498 renal
  TGI: > 100 µM
A549 NSCLC
  TGI: > 100 µM
ACHN renal
  TGI: > 100 µM
BT-549 breast
  TGI: > 100 µM
CAKI-1 renal
  TGI: > 100 µM
CCRF-CEM leukemia
  TGI: > 100 µM
COLO 205 colon
  TGI: > 100 µM
DU-145 prostate
  TGI: > 100 µM
EKVX NSCLC
  TGI: > 100 µM
HCT-116 colon
  TGI: > 100 µM
HCT-15 colon
  TGI: > 100 µM
HL-60(TB) leukemia
  TGI: > 100 µM
HOP-62 NSCLC
  TGI: > 100 µM
HOP-92 NSCLC
  TGI: > 100 µM
HS 578T breast
  TGI: > 100 µM
HT29 colon
  TGI: > 100 µM
IGROV1 ovarian
  TGI: > 100 µM
K-562 leukemia
  TGI: > 25.2 µM
KM12 colon
  TGI: > 100 µM
LOX IMVI melanoma
  TGI: > 100 µM
M14 melanoma
  TGI: > 100 µM
MALME-3M melanoma
  TGI: > 100 µM
MCF7 breast
  TGI: > 100 µM
MDA-MB-231 breast
  TGI: > 100 µM
MDA-MB-435
  TGI: > 100 µM
MDA-N
  TGI: > 100 µM
MOLT-4 leukemia
  TGI: > 100 µM
NCI-H226 lung
  TGI: > 100 µM
NCI-H23 lung
  TGI: > 100 µM
NCI-H460 lung
  TGI: > 100 µM
NCI-H522 lung
  TGI: > 100 µM
NCI/ADR-RES ovarian
  TGI: > 100 µM
OVCAR-3 ovarian
  TGI: > 100 µM
OVCAR-4 ovarian
  TGI: > 100 µM
OVCAR-5 ovarian
  TGI: > 100 µM
OVCAR-8 ovarian
  TGI: > 100 µM
PC-3 prostate
  TGI: > 100 µM
RPMI-8226 leukemia
  TGI: > 28.8 µM
RXF 393 renal
  TGI: > 100 µM
SF-268 CNS
  TGI: > 100 µM
SF-295 CNS
  TGI: > 100 µM
SF-539 CNS
  TGI: > 100 µM
SK-MEL-2 melanoma
  TGI: > 100 µM
SK-MEL-28 melanoma
  TGI: > 100 µM
SK-MEL-5 melanoma
  TGI: > 100 µM
SK-OV-3 ovarian
  TGI: > 100 µM
SN12C renal
  TGI: > 100 µM
SNB-19 CNS
  TGI: > 100 µM
SNB-75 CNS
  TGI: > 100 µM
SR leukemia
  TGI: > 23.6 µM
SW-620 colon
  TGI: > 100 µM
T-47D breast
  TGI: > 100 µM
TK-10 renal
  TGI: > 100 µM
U251 CNS
  TGI: > 100 µM
UACC-257 melanoma
  TGI: > 100 µM
UACC-62 melanoma
  TGI: > 100 µM
UO-31 renal
  TGI: > 100 µM

## O=C1CC2(CCC(O)(c3cccc4ccccc34)C(C(=O)c3cccc4ccccc34)C2)C(=O)c2ccccc2N1 (configuration not stated)
A498 renal
  TGI: > 100 µM
A549 NSCLC
  TGI: > 100 µM
BT-549 breast
  TGI: > 100 µM
CAKI-1 renal
  TGI: > 100 µM
COLO 205 colon
  TGI: > 100 µM
DU-145 prostate
  TGI: > 100 µM
EKVX NSCLC
  TGI: > 100 µM
HCC-2998 colon
  TGI: > 100 µM
HCT-116 colon
  TGI: > 100 µM
HCT-15 colon
  TGI: > 100 µM
HOP-62 NSCLC
  TGI: 40.4 µM
HOP-92 NSCLC
  TGI: 36.7 µM
HS 578T breast
  TGI: 47.9 µM
HT29 colon
  TGI: > 100 µM
IGROV1 ovarian
  TGI: > 100 µM
K-562 leukemia
  TGI: > 100 µM
LOX IMVI melanoma
  TGI: > 100 µM
M14 melanoma
  TGI: > 100 µM
MALME-3M melanoma
  TGI: > 100 µM
MCF7 breast
  TGI: > 100 µM
MDA-MB-231 breast
  TGI: 68 µM
MDA-MB-435
  TGI: > 100 µM
MDA-N
  TGI: > 100 µM
MOLT-4 leukemia
  TGI: > 100 µM
NCI-H226 lung
  TGI: > 100 µM
NCI-H23 lung
  TGI: > 100 µM
NCI-H460 lung
  TGI: 23.6 µM
NCI/ADR-RES ovarian
  TGI: > 100 µM
OVCAR-3 ovarian
  TGI: > 100 µM
OVCAR-5 ovarian
  TGI: > 100 µM
OVCAR-8 ovarian
  TGI: > 100 µM
PC-3 prostate
  TGI: > 100 µM
RXF 393 renal
  TGI: 36.9 µM
SF-268 CNS
  TGI: 91.6 µM
SF-295 CNS
  TGI: > 100 µM
SF-539 CNS
  TGI: > 100 µM
SK-MEL-2 melanoma
  TGI: > 100 µM
SK-MEL-28 melanoma
  TGI: > 100 µM
SK-MEL-5 melanoma
  TGI: > 100 µM
SK-OV-3 ovarian
  TGI: > 100 µM
SN12C renal
  TGI: > 100 µM
SNB-19 CNS
  TGI: 47.7 µM
SNB-75 CNS
  TGI: 34.3 µM
SR leukemia
  TGI: > 100 µM
SW-620 colon
  TGI: > 100 µM
T-47D breast
  TGI: > 100 µM
TK-10 renal
  TGI: > 100 µM
U251 CNS
  TGI: > 100 µM
UACC-257 melanoma
  TGI: > 100 µM
UACC-62 melanoma
  TGI: > 100 µM
UO-31 renal
  TGI: > 100 µM
